Laboratory results taken from ChEMBL document CHEMBL5360657, “Discovery of the TLR7/8 Antagonist MHV370 for Treatment of Systemic Autoimmune Diseases” (ACS Med Chem Lett, 2023).

Experiments:
[1] = Half life in mouse at 3 mg/kg, iv; type: ADME, organism-based; conditions: in vivo
[2] = Volume of distribution at steady state in mouse at 3 mg/kg, iv; type: ADME, organism-based; conditions: in vivo, read-out: Vdss
[3] = Solubility of the compound; type: physicochemical
[4] = target: Cytochrome P450 2D6 (Homo sapiens, UniProt P10635); assay: Inhibition of CYP2D6 (unknown origin); type: ADME
[5] = Oral bioavailability in mouse at 20 mg/kg; type: ADME, organism-based; conditions: in vivo
[6] = Cmax in mouse at 20 mg/kg, po; type: ADME, organism-based; parameters: dose 20 mg/kg, route po; conditions: in vivo
[7] = target: Toll-like receptor 7 (Mus musculus) (UniProt P58681); assay: In vivo antagonist activity against TLR7 in mouse assessed as inhibition of IFN alpha level at 10 mg/kg, po measured after 2 hrs by LC-MS/MS analysis relative to control
[8] = target: T1, Toll-like receptor 9 (Mus musculus, UniProt Q9EQU3); assay: Antagonist activity at TLR9 in mouse Splenocyte assessed as reduction in IFN-alpha level measured after 20 hrs by Spectramax M5 method; type: cell-based
T1 sequence (Q9EQU3 whole entry): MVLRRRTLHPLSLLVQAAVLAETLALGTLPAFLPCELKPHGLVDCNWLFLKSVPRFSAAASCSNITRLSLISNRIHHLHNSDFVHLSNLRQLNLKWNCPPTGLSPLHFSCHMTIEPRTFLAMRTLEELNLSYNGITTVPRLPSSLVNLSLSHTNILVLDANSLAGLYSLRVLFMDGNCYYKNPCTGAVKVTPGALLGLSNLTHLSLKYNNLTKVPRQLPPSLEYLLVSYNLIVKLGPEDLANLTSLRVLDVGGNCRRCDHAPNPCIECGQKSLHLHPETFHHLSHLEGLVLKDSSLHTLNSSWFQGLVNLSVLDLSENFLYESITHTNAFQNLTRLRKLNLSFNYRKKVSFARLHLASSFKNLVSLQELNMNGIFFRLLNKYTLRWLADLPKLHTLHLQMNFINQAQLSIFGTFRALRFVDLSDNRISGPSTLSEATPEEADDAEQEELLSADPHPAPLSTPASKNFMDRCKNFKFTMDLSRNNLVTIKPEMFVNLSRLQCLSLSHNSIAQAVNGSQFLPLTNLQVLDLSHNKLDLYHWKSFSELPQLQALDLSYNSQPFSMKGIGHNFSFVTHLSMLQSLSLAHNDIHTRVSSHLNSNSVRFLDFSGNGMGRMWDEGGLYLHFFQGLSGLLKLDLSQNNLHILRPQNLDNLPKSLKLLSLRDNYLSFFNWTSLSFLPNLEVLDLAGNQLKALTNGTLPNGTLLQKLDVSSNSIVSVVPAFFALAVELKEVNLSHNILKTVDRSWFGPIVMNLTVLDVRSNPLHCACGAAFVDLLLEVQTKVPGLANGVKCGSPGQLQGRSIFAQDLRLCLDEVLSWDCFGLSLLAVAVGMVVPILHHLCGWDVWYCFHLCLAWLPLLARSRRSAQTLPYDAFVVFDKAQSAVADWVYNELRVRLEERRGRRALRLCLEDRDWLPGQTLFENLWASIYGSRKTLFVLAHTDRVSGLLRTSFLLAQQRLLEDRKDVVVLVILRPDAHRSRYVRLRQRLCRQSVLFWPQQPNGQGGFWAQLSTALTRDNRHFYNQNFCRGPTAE

[9] = target: T2, Toll-like receptor 4 (Mus musculus, UniProt Q9QUK6); assay: Antagonist activity at TLR4 in mouse Whole blood cell assessed as reduction in IL-6 level measured after 20 hrs by HTRF method; type: tissue-based
T2 sequence (Q9QUK6 whole entry): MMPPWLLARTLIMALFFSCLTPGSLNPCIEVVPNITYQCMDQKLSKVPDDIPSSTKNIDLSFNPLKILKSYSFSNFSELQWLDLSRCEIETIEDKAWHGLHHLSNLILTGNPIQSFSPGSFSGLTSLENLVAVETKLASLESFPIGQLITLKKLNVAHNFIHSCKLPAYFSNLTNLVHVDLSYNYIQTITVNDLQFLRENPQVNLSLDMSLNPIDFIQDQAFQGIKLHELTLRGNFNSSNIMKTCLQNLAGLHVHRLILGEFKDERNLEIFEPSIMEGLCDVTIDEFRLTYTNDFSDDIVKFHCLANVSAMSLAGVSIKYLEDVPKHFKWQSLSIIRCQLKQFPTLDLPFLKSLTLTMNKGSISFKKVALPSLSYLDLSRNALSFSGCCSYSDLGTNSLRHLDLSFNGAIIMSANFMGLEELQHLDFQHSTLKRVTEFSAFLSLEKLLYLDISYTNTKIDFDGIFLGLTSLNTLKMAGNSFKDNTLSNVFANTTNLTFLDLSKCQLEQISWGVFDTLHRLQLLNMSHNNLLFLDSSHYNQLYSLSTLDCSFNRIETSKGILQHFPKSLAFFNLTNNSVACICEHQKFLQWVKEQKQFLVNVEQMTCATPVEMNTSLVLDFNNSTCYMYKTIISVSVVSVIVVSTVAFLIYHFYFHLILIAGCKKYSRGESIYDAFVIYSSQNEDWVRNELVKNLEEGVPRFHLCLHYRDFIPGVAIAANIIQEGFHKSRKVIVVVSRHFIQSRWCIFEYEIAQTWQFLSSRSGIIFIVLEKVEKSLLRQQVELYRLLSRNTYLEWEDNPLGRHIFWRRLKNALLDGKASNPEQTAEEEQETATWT

[10] = target: Toll-like receptor 7 (Mus musculus) (UniProt P58681); assay: In vivo antagonist activity against TLR7 in mouse assessed as inhibition of TNF level at 10 mg/kg, po measured after 2 hrs by LC-MS/MS analysis relative to control

Chain of Cytochrome P450 2D6 (P10635 whole entry): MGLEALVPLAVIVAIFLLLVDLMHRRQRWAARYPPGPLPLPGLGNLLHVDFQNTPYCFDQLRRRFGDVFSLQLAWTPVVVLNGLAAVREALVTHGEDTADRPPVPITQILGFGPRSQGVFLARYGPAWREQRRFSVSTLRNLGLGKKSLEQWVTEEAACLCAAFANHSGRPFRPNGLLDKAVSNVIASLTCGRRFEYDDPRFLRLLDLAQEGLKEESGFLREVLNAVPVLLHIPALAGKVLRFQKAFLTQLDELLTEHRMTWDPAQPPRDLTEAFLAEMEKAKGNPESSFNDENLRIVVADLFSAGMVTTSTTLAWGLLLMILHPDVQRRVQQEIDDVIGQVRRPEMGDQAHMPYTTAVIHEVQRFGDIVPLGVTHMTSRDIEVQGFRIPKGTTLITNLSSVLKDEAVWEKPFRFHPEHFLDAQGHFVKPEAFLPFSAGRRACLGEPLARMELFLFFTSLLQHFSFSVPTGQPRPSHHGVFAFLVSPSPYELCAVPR

t1/2 [1] [h] | Vd [2] [L/kg] | solubility [3] [µM] | IC50 [4] [µM] | bioavailability [5] [%] | Cmax [6] [nM] | SMILES | inhibition in vivo at 10 mg/kg [7] [%] | IC50 [8] [µM] | IC50 [9] [µM] | inhibition in vivo at 10 mg/kg [10] [%]
2.1 | 4.1 | > 175 | > 25 | 4 | 321 | Cc1cc(N2CCc3c(c(C)nn3CC34CCC(N)(CC3)CC4)C2)c2cnn(C)c2n1 |  |  |  | 
 |  |  |  |  |  | Cc1cc(N2CCc3c(c(C)nn3CC34CCC(NC(=O)[C@@H]5COCCN5)(CC3)CC4)C2)c2cnn(C)c2n1 [MHV-370] | ~100 | > 1 | > 10 | ~100
